The NIST ThermoML archive (doi:10.1021/acs.jced.5b00804)

Conditions: 101.33 kPa, Liquid; for viscosity: Capillary tube (Ostwald / Ubbelohde) method; for mass density: Pycnometric method

NCCN [ethane-1,2-diamine]
Conditions	mass density [kg/m3]	viscosity [mPa·s]
303.15 K	890.3	1.26
308.15 K	885.9	1.18
313.15 K	881.7	1.03
318.15 K	876.9	0.938
323.15 K	871.3	0.905
